Measured values taken from PMC6438731, “Extrasynaptic δ‐GABAA receptors are high‐affinity muscimol receptors” (Journal of Neurochemistry, 2019).
Read-outs that look alike come from different tables or passages of the source.

Legend:
[1] = biological target: α4β3δ receptors; set-up: method as in Mortensen et al. 2010; conditions: recombinantly expressed α4β3δ receptors, ref Mortensen et al. 2010; read-out: muscimol EC50; cited from earlier work
[2] = system: α1βγ2 GABAARs; set-up: method as in Karim et al. 2013; conditions: ref Karim et al. 2013; cited from earlier work
[3] = biological target: T1, recombinant α4β3δ receptors (Homo sapiens, UniProt O14764+P28472+P48169); experiment: Muscimol currents, two electrode voltage clamp in Xenopus oocytes, α4β3δ; format: cell-based
T1 construct: expressed in transfected cells; host or cells: Xenopus laevis oocytes injected with cRNA
Text: (§1) Human α4, α6, β3, and δ cDNA clones for oocyte expression were made by PCR amplification of the coding region (NcoI site introduced with the amplifying 5′ oligonucleotide at the ATG initiation codon) and a HindIII (or SpeI) containing oligo) and cloning it into a NcoI‐HindIII (or SpeI) cut vector backbone derived from pEGFP‐N1 (Addgene 6085‐1). The entire transcribed region was confirmed by sequencing to ensure that protein sequences conform to consensus sequences found in the RefSeq database (https://www.ncbi.nlm.gov/RefSeq). Plasmids were linearized with NotI (New England Biolabs) and cRNA was transcribed, using T7 RNA polymerase (Ambion, mMESSAGE mMACHINE T7 Transcription Kit, Ambion Austin TX, USA, Cat. No. 1344). Xenopus laevis (Nasco, product number LM00531) oocytes were prepared from oocyte lobes shared by Dr. Olcese (UCLA, Anesthesiology). The oocytes were injected with 2 ng of each α6 and β3 subunit cRNA alone or together with 10 ng δ cRNA. Currents were measured 5–10 days after injection by two electrode voltage clamp using an Axoclamp 2B amplifier and pCLAMP software. Drug solutions were applied in ND96 (in mM 96 NaCl, 2 KCl, 1.8 CaCl2, 1 MgCl2, 5 HEPES pH 7.4) by gravity perfusion with bath exchange time of about 2 s. Muscimol was prepared as an aqueous 100 mM stock solution.

[4] = biological target: T2, recombinant α4β3 receptors (Homo sapiens, UniProt P28472+P48169); experiment: Muscimol currents, two electrode voltage clamp in Xenopus oocytes, α4β3; format: cell-based; conditions: α4β3‐injected oocytes, without δ
T2 construct: expressed in transfected cells; host or cells: Xenopus laevis oocytes injected with cRNA
Text: as §1

[5] = biological target: α6β3δ receptors; set-up: method as in Stórustovu and Ebert 2006; conditions: recombinantly expressed α6β3δ receptors, ref Stórustovu and Ebert 2006; read-out: muscimol EC50; cited from earlier work
[6] = system: different GABAAR subtypes; experiment: Affinity of muscimol compared with GABA across GABAAR subtypes; conditions: across the board for different GABAAR subtypes
[7] = biological target: α4β3δ receptors; set-up: method as in Stórustovu and Ebert 2006; conditions: recombinantly expressed α4β3δ receptors, ref Stórustovu and Ebert 2006; read-out: muscimol EC50; cited from earlier work

T1 sequence (P48169 36-554): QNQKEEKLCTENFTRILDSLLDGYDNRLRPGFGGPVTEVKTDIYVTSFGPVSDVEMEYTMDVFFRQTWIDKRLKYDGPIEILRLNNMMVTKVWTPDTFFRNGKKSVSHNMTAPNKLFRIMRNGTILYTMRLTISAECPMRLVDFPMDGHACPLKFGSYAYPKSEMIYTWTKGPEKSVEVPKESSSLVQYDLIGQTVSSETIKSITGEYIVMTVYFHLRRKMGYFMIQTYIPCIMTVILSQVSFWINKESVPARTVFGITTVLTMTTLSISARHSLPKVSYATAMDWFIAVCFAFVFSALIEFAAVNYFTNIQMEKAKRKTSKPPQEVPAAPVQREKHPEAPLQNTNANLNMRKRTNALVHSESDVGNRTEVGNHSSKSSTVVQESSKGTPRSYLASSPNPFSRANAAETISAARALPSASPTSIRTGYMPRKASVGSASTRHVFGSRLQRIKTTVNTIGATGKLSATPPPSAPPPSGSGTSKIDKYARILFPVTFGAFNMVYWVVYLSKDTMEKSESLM
T1 sequence (P28472 26-473): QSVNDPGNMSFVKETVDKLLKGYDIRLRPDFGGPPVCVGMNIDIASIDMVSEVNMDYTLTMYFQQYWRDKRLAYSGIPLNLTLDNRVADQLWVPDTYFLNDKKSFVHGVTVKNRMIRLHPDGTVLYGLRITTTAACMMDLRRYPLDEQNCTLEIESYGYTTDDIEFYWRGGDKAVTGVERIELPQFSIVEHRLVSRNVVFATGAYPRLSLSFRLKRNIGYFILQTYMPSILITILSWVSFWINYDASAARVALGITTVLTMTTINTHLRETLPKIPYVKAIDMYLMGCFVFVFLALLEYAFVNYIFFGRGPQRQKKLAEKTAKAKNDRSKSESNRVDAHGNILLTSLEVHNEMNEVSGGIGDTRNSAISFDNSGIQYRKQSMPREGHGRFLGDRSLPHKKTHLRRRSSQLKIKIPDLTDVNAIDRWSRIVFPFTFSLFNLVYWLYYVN
T1 sequence (O14764 25-452): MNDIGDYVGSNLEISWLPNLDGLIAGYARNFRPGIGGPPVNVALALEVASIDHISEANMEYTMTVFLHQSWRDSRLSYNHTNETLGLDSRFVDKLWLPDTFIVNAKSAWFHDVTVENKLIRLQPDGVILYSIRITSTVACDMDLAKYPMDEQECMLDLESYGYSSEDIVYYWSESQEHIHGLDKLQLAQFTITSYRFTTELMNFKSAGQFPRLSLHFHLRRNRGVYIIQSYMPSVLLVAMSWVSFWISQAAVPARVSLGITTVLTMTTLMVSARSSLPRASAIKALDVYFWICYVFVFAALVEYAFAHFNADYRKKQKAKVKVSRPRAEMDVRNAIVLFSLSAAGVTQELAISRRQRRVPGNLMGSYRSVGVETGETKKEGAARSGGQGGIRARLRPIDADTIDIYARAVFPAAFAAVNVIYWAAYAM
T2 sequence (P48169 36-554): as the sequence (P48169 36-554) above
T2 sequence (P28472 26-473): as the sequence (P28472 26-473) above

Q: Which results are given for `NCc1cc(=O)[nH]o1` [muscimol]?
A: EC50 [1]: 200 nM; EC50 [2]: ~1000 nM; EC50 ([3]; α4β3δ in Xenopus oocytes, estimated/approximate, read-out: EC50 of the high‐muscimol affinity (slowly deactivating) current component): 1 to 2 nM; threshold muscimol concentration evoking currents ([3]; α4β3δ‐injected oocytes): 0.1 nM; threshold muscimol concentration evoking currents [4]: about 30 nM; EC50 [5]: 160 nM; higher affinity than GABA [6]: 100–1000 times; EC50 [7]: 2280 nM
